Results published in ChEMBL document CHEMBL4673264, “Discovery of natural TRPA1 activators through pharmacophore-based virtual screening and a biological assay” (Bioorg Med Chem Lett, 2021).
pEC50: −log10 of the molar value.

What was measured:
[1] = target: T1, Transient receptor potential cation channel subfamily A member 1 (Homo sapiens, UniProt O75762); assay: Agonist activity at TRPA1 (unknown origin) by calcium imaging assay
[2] = target: T1, Transient receptor potential cation channel subfamily A member 1; assay: Agonist activity at TRPA1 (unknown origin) by calcium imaging assay relative to allyl isothiocyanate; set-up: concentration or dose not given beside the values; conditions: filed as agonist

T1 sequence (O75762 whole entry): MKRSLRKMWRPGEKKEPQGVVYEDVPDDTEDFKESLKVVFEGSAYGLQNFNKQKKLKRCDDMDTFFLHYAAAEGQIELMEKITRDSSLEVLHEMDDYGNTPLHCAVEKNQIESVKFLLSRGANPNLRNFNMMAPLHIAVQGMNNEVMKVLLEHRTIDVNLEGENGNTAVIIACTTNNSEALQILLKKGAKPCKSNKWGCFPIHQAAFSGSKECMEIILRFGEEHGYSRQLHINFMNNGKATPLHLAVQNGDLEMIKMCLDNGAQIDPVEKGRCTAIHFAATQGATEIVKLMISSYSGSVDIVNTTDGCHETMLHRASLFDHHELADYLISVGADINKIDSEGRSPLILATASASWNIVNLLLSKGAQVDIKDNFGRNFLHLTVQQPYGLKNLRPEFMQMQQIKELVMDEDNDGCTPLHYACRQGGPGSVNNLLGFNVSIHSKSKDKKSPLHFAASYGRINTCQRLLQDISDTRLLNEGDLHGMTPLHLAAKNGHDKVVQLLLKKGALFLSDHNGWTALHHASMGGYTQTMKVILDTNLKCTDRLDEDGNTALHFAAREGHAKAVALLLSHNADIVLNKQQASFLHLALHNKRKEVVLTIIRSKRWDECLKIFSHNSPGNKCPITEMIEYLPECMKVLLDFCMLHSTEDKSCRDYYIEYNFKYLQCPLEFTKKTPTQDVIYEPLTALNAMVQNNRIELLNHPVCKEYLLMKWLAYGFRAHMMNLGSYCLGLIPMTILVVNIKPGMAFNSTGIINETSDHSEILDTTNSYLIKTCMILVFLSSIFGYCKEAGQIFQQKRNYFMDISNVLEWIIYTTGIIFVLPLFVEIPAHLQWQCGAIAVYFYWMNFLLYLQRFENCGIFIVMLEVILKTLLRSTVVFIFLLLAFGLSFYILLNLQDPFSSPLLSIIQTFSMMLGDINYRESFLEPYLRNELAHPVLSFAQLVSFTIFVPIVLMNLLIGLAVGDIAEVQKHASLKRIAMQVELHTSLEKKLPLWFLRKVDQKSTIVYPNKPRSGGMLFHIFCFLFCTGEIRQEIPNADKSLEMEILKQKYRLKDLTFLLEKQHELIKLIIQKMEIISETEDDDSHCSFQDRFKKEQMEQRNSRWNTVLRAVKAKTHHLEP

With `CCc1ccc(O)c(OC)c1` as the compound, how does the pEC50 [1] read?
Its pEC50 is 4.00.

And the Activity [2]?
The Activity was 74%.

How did the pEC50 [1] turn out when `C/C=C/c1ccc(O)c(OC)c1` was run?
The pEC50 was 3.83.

What about the Activity [2] of the same compound?
The Activity was 139%.

With `C=Cc1ccc(O)c(OC)c1` as the compound, how does the pEC50 [1] read?
The pEC50 was 4.08.

What about the Activity [2] of the same compound?
The Activity was 50%.

With `c1ccc2[nH]ccc2c1` [INDOLE] as the compound, how does the pEC50 [1] read?
The pEC50 was 4.12.

What about the Activity [2] of the same compound?
Its Activity is 111%.

With `CCc1ccc(O)c(O)c1` as the compound, how does the pEC50 [1] read?
The pEC50 was 5.06.

What about the Activity [2] of the same compound?
The Activity was 99%.

How did the Activity [2] turn out when `Cc1ccc(C(C)C)c(O)c1` was run?
The Activity was 140%.

`Cc1cccc(O)c1O` was tested. Which pEC50 [1] did it give?
Its pEC50 is 5.55.

And the Activity [2]?
The Activity was 151%.

How did the Activity [2] turn out when `COc1cc(O)c(CC=C(C)C)c2c1C(=O)CC(c1ccc(O)cc1)O2` (stereo not drawn) was run?
Its Activity is 90%.

How did the Activity [2] turn out when `COc1cc(C(=O)C(O)CO)ccc1O` (stereo not drawn) was run?
Its Activity is 63%.

What does the source list for `C=CCc1ccc(O)c(OC)c1` [EUGENOL]?
pEC50 [1]: 3.94; Activity [2]: 122%

Which results are given for `Cc1cccc(O)c1C`?
pEC50 [1]: 4.07; Activity [2]: 82%

`Cc1ccc(O)c(O)c1` was tested. Which pEC50 [1] did it give?
The pEC50 was 4.93.

And the Activity [2]?
The Activity was 107%.

`Oc1ccccc1Cl` [2-CHLOROPHENOL] was tested. Which pEC50 [1] did it give?
The pEC50 was 3.30.

And the Activity [2]?
Its Activity is 54%.
